Measured values reported in ChEMBL document CHEMBL3132819, “2-Hydroxy-substituted cinnamic acids and acetanilides are selective growth inhibitors of Mycobacterium tuberculosis” (Medchemcomm, 2014).
In brackets after ≈: the same amount, converted by molar mass.

Key:
[1] = system: Mycobacterium tuberculosis; test: Antibacterial activity against Mycobacterium tuberculosis H37Rv ATCC 27294 after 2 weeks by spot culture growth inhibition assay; format: functional; conditions: H37Rv ATCC 27294, 336 h
[2] = Selectivity index, ratio of GI50 for mouse RAW264.7 cells to MIC for Mycobacterium tuberculosis H37Rv ATCC 27294; format: toxicity; conditions: read-out: Selectivity Index
[3] = Cytotoxicity against mouse RAW264.7 cells assessed as growth inhibition after 48 hrs by trypan blue assay; format: cell-based
[4] = system: Mycolicibacterium smegmatis; test: Antibacterial activity against Mycobacterium smegmatis MC2 155 assessed as growth inhibition; format: functional; conditions: str. MC2 155

Compound	MIC [1] [µM]	selectivity ratio [2]	GI50 at 48 h [3] [µM]	MIC [4] [µM]
CC(C)=CCC/C(C)=C/COc1ccc(/C=C/C(=O)O)cc1	66.8 (≈ 20.1 µg/mL)	3.14	210	> 600
CC(=O)Nc1ccccc1O	132 (≈ 20 µg/mL)	31.8	4200	> 600
COC(=O)/C=C/c1ccccc1O	112 (≈ 20 µg/mL)	10	1120	> 600
COC(=O)/C=C/c1ccc(OC/C=C(\C)CCC=C(C)C)cc1	127 (≈ 39.9 µg/mL)	1.25	159	> 600
O=C(O)/C=C/c1cccc(O)c1	366 (≈ 60.1 µg/mL)	14.5	5290	> 600
O=C(O)/C=C/c1ccc(O)cc1 [COUMARIC ACID]	244 (≈ 40.1 µg/mL)	18.7	4560	> 600
COC(=O)/C=C/c1cccc(O)c1	224 (≈ 39.9 µg/mL)	3.8	850	> 600
CC(C)=CCOc1cccc(/C=C/C(=O)O)c1	172 (≈ 40 µg/mL)	7.53		> 600
O=C(O)/C=C/c1ccc2c(c1)OCO2	312 (≈ 60 µg/mL)	8.8		> 600
COC(=O)/C=C/c1ccc(O)cc1 [METHYL P-HYDROXYCINNAMATE]	224 (≈ 39.9 µg/mL)	2.72	609	> 600
COC(=O)/C=C/c1ccc(OCC=C(C)C)cc1	81.2 (≈ 20 µg/mL)	6	487	> 600
CC(=O)Nc1ccc(O)cc1 [ACETAMINOPHEN]	> 661	< 1.52	1000	> 600
COC(=O)/C=C/c1ccccc1OCC=C(C)C	> 406	< 6.4		> 600
NNC(=O)c1ccncc1 [ISONIAZID]	0.73 (≈ 0.1 µg/mL)	30000	21900	
COC(=O)/C=C/c1cccc(OCC=C(C)C)c1	244 (≈ 60.1 µg/mL)	12.2		> 600
CC(C)=CCOc1ccccc1/C=C/C(=O)O	258 (≈ 59.9 µg/mL)	6.52		> 600
O=C(O)/C=C/c1ccccc1 [CINNAMIC ACID]	270 (≈ 40 µg/mL)	24.2	6550	> 600
CC(C)=CCOc1ccc(/C=C/C(=O)O)cc1	86.1 (≈ 20 µg/mL)	15.6	1340	> 600
CC(=O)Nc1cccc(O)c1 [METACETAMOL]	> 661	< 8.08	5340	> 600
CO[C@H]1/C=C/O[C@@]2(C)Oc3c(C)c(O)c4c(O)c(c(/C=N/N5CCN(C)CC5)c(O)c4c3C2=O)NC(=O)/C(C)=C\C=C\[C@H](C)[C@H](O)[C@@H](C)[C@@H](O)[C@@H](C)[C@H](OC(C)=O)[C@@H]1C [RIFAMPIN]	0.0607 (≈ 0.05 µg/mL)	14000	850	
O=C(O)/C=C/c1ccccc1O [O-COUMARIC ACID]	122 (≈ 20 µg/mL)	37.4	4560	> 600
